Source: patent US20090162911A1 (priority 2007, published 2009)
Read-outs that look alike come from different tables or passages of the source.

Key:
[1] = tested on: acrB transposition mutant strain DPD1852; details: LB with 0.2%, 0.3%, 0.4% or 0.6% 1-butanol (w/v), FIG. 3
Procedure: Overnight triplicate cultures of each strain were grown and diluted (1:10) into either LB or LB freshly supplemented with 0.2%, 0.3%. 0.4% or 0.6% 1-butanol (w/v). The growth of each culture was followed for approximately 18 hours.
An additional kinetic growth study was performed as described above.

[2] = tested on: acrB transposon mutant line DPD1852; assay type: cell-based, E. coli; details: acrB mutation, 18 hr exposure, FIG. 7
Procedure: Growth of the acrB transposon mutant line, DPD1852 (in Example 2), and the parental strain EC100 were compared in the presence of different butanols. Cultures were grown in LB medium at 37° C. to mid-logarithmic phase and then 200 μl was put into microtiter wells of a Bioscreen device that monitors optical density as a function of time. Triplicate wells contained a culture challenged with a specified concentration of a compound. For 2- and isobutanol the concentrations tested were 0, 0.8, 1.2, 1.4, and 1.6% weight percent. For 1-butanol the concentrations were 0, 0.2, 0.3, 0.4, and 0.6% w/v. For 2-butanone (MEK, methylethylketone) the concentrations were 0, 2.5, 3, 3.5 and 4% w/v.

[3] = tested on: acrB deletion line DPD1876; details: acrB mutant, 0.4 and 0.6% 1-butanol, 18 hr, FIG. 6
Procedure: (§1) Shake flask experiments were performed on the acrB rpoZ::kan constructed double mutant line DPD1899, as well as the acrB deletion line DPD1876, the rpoZ::kan line JW3624, and the wild type control BW25113 line. Cultures were grown in LB medium containing 0%, 0.4% or 0.6% 1-butanol in shake flasks. The experiments were performed by inoculating 100 ml of medium in a 250 ml plastic flask with 2 ml of an overnight culture grown from a single colony grown at 37° C. and incubating with shaking for approximately two doubling times (1 hour), to an OD600 between 0.2 and 0.3. Each culture was split into […] in plastic screw top 125 ml flasks and the cultures were maintained at 37° C. in a shaking water bath at 200 rpm. The OD600 was monitored at 0, 30, 90, 120 190, and 260 minutes.
(§2) In the cultures above, a final time point was taken at 18 hr and used to calculate growth yield as a function of 1-butanol challenge. For each line grown in 0, 0.4% or 0.6% 1-butanol, the final 18 hour time point was divided by the no 1-butanol 18 hr time point.

[4] = tested on: acrB rpoZ::kan double mutant line DPD1899; details: 0.4 and 0.6% 1-butanol, 18 hr, FIG. 6
Procedure: as §1, §2

rpoZ::kan line JW3624 = details: rpoZ mutant, 0.4 and 0.6% 1-butanol, 18 hr, FIG. 6
Procedure: as §1, §2

[5] = tested on: wild type control BW25113; details: wild type cells, 0.4 and 0.6% 1-butanol, 18 hr, FIG. 6
Procedure: as §1, §2

E. coli strain EC100 = details: EC100 on solidified LB
Procedure: LB agar media supplemented with butanol was prepared fresh one day before innoculating at an appropriate volume and cooled for 2 hours in a 50° C. water bath. LB agar plates supplemented with butanol were prepared by dispensing 67 mls of melted agar, using a peristaltic pump and sterile Nalgene tubing, into sterile Omni trays with lids (Nunc mfg no. 242811). […] The plates were allowed to cool and set for approximately an hour before they were stored overnight in closed anaerobic chambers at room temperature in the chemical/biological hood. The next morning, the chambers harboring the plates were opened and allowed to air dry for approximately 1 hour before using.
Plates were incubated in a closed chamber at 37° C. for 1 day. The number of colonies arising and their sizes were scored. […] Butanol concentrations of 0.4% and 0.6% were chosen to screen for tolerance.

[6] = tested on: acrA insertion strain JW0452; assay type: cell-based, E. coli; details: for improved growth over the parental strain: acrA modified strain, 3 hr exposure, LB 37° C.; for tolerance of mutant relative to parent strain: acrA mutant JW0452, FIG. 8
Procedure: (§3) Strains of E. coli K12 EC100 having insertions in either the acrA or acrB coding regions, JW0452 and JW0451 respectively, were obtained from the Keio knockout collection described in Example 4. Growth of these strains was compared in the presence of 2-butanol and isobutanol in relation to the parental strain EC100. Overnight cultures were inoculated with a fresh colony and grown in LB at 37° C. with shaking. The next day the culture was diluted 1:100 into 100 ml of fresh LB in a 1 liter flask and grown for approximately 2 hours. The culture was split into 20 ml aliquots in 125 ml plastic screw top flasks. One culture remained unaltered serving as the no add control, and various concentrations of either 2-butanol or isobutanol were added to the remaining flasks. Absorbance (OD600) was monitored over time. Fractional growth yields were determined after 3 hr of exposure and percent improvement was calculated by subtracting the […] and multiplying by 100.

[7] = tested on: acrB insertion strain JW0451; assay type: cell-based, E. coli; details: for improved growth over the parental strain: acrB modified strain, 3 hr exposure, LB 37° C.; for tolerance of mutant relative to parent strain: acrB mutant JW0451, FIG. 8
Procedure: as §3

[8] = tested on: tolC transposon insertion mutant JW5503; assay: Shake flask growth of tolC insertion mutant compared with parental strain; assay type: cell-based, E. coli
Procedure: as §3
In addition, a to/C transposon insertion mutant of the Keio collection, JW5503, was also assayed.

Structure (SMILES)	tolerance in terms of growth rate relative to wild type EC100 [1]	tolerance (growth improvement over parental EC100) [2]	growth yield (fractional growth) [3]	growth yield (fractional growth) [4]	growth yield (fractional growth) (rpoZ::kan line JW3624)	sensitivity to growth inhibition (fractional growth) [5]	colony size (E. coli strain EC100; 0.6% 1-butanol, 37° C., 1 day)	concentration with no colony formation after overnight incubation (E. coli strain EC100; 37° C.)	concentration from which colonies were progressively smaller (E. coli strain EC100; closed chamber, 37° C., 1 day)	titer (number of colonies arising) (E. coli strain EC100; range of 0 to 0.6% 1-butanol)	improved growth over the parental strain ([6]; 0.6% of the compound)	improved growth over the parental strain ([6]; 0.8% of the compound)	tolerance of mutant relative to parent strain [6]	improved growth over the parental strain ([7]; 0.6% of the compound)	improved growth over the parental strain ([7]; 0.8% of the compound)	tolerance of mutant relative to parent strain [7]	growth response relative to parental strain [8]	improved growth over the parental strain ([6]; 0.4% of the compound)	improved growth over the parental strain ([7]; 0.4% of the compound)
CCCCO [1-butanol]	more tolerant to all of the concentrations of 1-butanol tested than the wild type strain	improved the tolerance	higher growth yields than wild type	even higher growth yield	higher growth yields than wild type	most sensitive to growth inhibition	only pinpoint colonies	≥ 0.7 % (w/v)	≥ 0.2%	No change in titer	–	–	–	–	–	–	–	–	–
CCC(C)O (stereo not drawn) [2-butanol]	–	improved the tolerance	–	–	–	–	–	–	–	–	about 12%	about 5%	more tolerant	about 24%	about 12%	more tolerant	indistinguishable from the parental strain	–	–
CCC(C)=O [MEK, 2-butanone]	–	improved the tolerance	–	–	–	–	–	–	–	–	–	–	–	–	–	–	–	–	–
CC(C)CO [isobutanol]	–	improved the tolerance	–	–	–	–	–	–	–	–	about 3.5%	–	more tolerant	about 2.5%	–	more tolerant	indistinguishable from the parental strain	about 18%	about 20%
